Measured values taken from PubChem BioAssay (NCI).
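Grown in 96-well plates, cells were treated for 48 hours with each compound at five concentrations. Insufficient inhibition: endpoint recorded as highest concentration tested. TGI: total growth inhibition.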

The compounds below were run on CAKI-1 renal (assay: NCI anticancer screen, dose series, 48 h).
`Cc1cn(C2CC(N=[N+]=[N-])C(COP(=O)(O)OCC3OC(n4cc(F)c(=O)[nH]c4=O)CC3O)O2)c(=O)[nH]c1=O` (stereo not given) showed a TGI of over 100 µM.

These compounds were tested on HOP-62 NSCLC (assay: NCI anticancer screen, dose series, 48 h).
`C=C1C(=O)O[C@H]2C1C[C@H](O)[C@@]1(C)OC1CC[C@@]1(C)O[C@H]21` (stereo not given in full) was tested, and the TGI was 73.3 µM.
Work on `O=C(NCCNCCNC(=O)c1cc(-c2ccccc2)nc2ccccc12)c1cc(-c2ccccc2)nc2ccccc12` yielded a TGI of 3.26 µM.
Compound `COc1cc([C@@H]2c3cc4c(cc3[C@@H](Nc3ccc(Cl)cc3C(=O)c3ccccc3)[C@H]3COC(=O)[C@H]23)OCO4)cc(OC)c1OC` has a TGI of over 100 µM.
In the case of `Cc1cc(O)c(/C=N/C(=S)Nc2ccc(S(N)(=O)=O)cc2)c(=O)o1`, the TGI was over 100 µM.
Work on `CCOC(=O)c1nc2ccc(C(F)(F)F)cc2nc1Nc1ccc(OC)cc1` yielded a TGI of 63.5 µM.
Compound `Cn1nnc2c3c(N(CCO)CCO)ccnc3ccc21` has a TGI of over 100 µM.
Compound `Cc1ccc(S(=O)(=O)N2CCSCCSCCSCCN(S(=O)(=O)c3ccc(C)cc3)CC2)cc1` has a TGI of over 100 µM.
Work on `CC(=O)[C@H]1[C@H](O)C[C@@]2(C)[C@@H]3CCc4cc(O)c(OC5OC(CO)C(O)C(O)C5O)cc4C3(C)C(=O)C[C@]12C` (stereo not given in full) yielded a TGI of over 100 µM.
`CCCc1nc2c(n1CC)C(=O)c1ccccc1C2=O` gave a TGI of over 100 µM.
With `CC(Oc1ccc(Cl)cc1Cl)C(=O)NN1C(=O)CC(=O)N(c2ccccc2)C1=S` (stereo not given) the TGI was over 100 µM.
`COC(=O)[C@@](NC(=O)OCc1ccccc1)([C@H](C)O)C(F)(F)F` showed a TGI of over 100 µM.
For `CO/C(=N\N=C\c1ccc(Cl)c(Cl)c1)c1ccncc1`, the TGI was over 10 µM.
`CC(=O)/C(=C\I)c1ccccc1` showed a TGI of 46.9 µM.
`CCOC(=O)c1c[nH]c(C(=O)C=[N+]=[N-])c1C1CCN(CC)C1=S` (stereo not given) gave a TGI of over 100 µM.
With `Cc1cc(NS(=O)(=O)c2ccc(N=[N+]([O-])c3ccc(S(=O)(=O)Nc4cc(C)on4)cc3)cc2)no1` the TGI was over 100 µM.
`COC(=O)/C=C(\C)CCC1SC1(C)C` (stereo not given) showed a TGI of over 100 µM.
`COC(=O)C(=O)C(C(=O)C(=O)Nc1ccc(C)cc1C)c1nc2ccc(Cl)cc2[nH]c1=O` (stereo not given) gave a TGI of over 100 µM.
Compound `Cc1ccc(S(=O)(=O)N/N=C2/CCC3(O)CC2(C)CCC2[C@H]3CC2(C)C)cc1` (stereo not given in full) has a TGI of over 100 µM.
With `CC1=CCC(C(C)(C)NC(=O)c2ccccc2)C/C1=N/O` (stereo not given) the TGI was over 100 µM.
`CCSC1=N/C(=C\c2ccco2)C(=O)N1` was tested, and the TGI was over 100 µM.
`COc1ccc(-c2nc(Nc3ccccc3)sc2Cc2sc(Nc3ccccc3)nc2-c2ccc(OC)cc2)cc1` showed a TGI of over 100 µM.
Compound `Cc1ccc(S(=O)(=O)N2CCNCCN(S(=O)(=O)c3ccc(C)cc3)CCNCC2)cc1` has a TGI of 34.8 µM.
With `COc1cc(C2c3cc4c(cc3C(=O)C3CCC(=O)N32)OCO4)cc(OC)c1O` (stereo not given) the TGI was over 50 µM.
For `Cc1cn(C2CC(N=[N+]=[N-])C(COP(=O)(O)OCC3OC(n4cc(F)c(=O)[nH]c4=O)CC3O)O2)c(=O)[nH]c1=O` (stereo not given), the TGI was over 100 µM.

The compounds below were run on RPMI-8226 leukemia (assay: NCI anticancer screen, dose series, 48 h).
`C=C1C(=O)O[C@H]2C1C[C@H](O)[C@@]1(C)OC1CC[C@@]1(C)O[C@H]21` (stereo not given in full) showed a TGI of 30.2 µM.
Work on `COc1cc([C@@H]2c3cc4c(cc3[C@@H](Nc3ccc(Cl)cc3C(=O)c3ccccc3)[C@H]3COC(=O)[C@H]23)OCO4)cc(OC)c1OC` yielded a TGI of over 100 µM.
`CCOC(=O)c1nc2ccc(C(F)(F)F)cc2nc1Nc1ccc(OC)cc1` gave a TGI of over 100 µM.
For `Cc1ccc(S(=O)(=O)N2CCSCCSCCSCCN(S(=O)(=O)c3ccc(C)cc3)CC2)cc1`, the TGI was over 100 µM.
`CC(C)(O)c1cc2c(cc1C(C)(C)O)-c1ccccc1-2` showed a TGI of over 100 µM.
`CCCc1nc2c(n1CC)C(=O)c1ccccc1C2=O` was tested, and the TGI was over 100 µM.
`CC(Oc1ccc(Cl)cc1Cl)C(=O)NN1C(=O)CC(=O)N(c2ccccc2)C1=S` (stereo not given) was tested, and the TGI was over 100 µM.
Compound `O=C(NCCN1CCCCC1)c1cccc(I)c1` has a TGI of over 100 µM.
`COC(=O)[C@@](NC(=O)OCc1ccccc1)([C@H](C)O)C(F)(F)F` was tested, and the TGI was over 100 µM.
`CO/C(=N\N=C\c1ccc(Cl)c(Cl)c1)c1ccncc1` showed a TGI of over 10 µM.
With `CC(=O)/C(=C\I)c1ccccc1` the TGI was 5.26 µM.
Compound `CCOC(=O)c1c[nH]c(C(=O)C=[N+]=[N-])c1C1CCN(CC)C1=S` (stereo not given) has a TGI of over 100 µM.
Compound `Cc1cc(NS(=O)(=O)c2ccc(N=[N+]([O-])c3ccc(S(=O)(=O)Nc4cc(C)on4)cc3)cc2)no1` has a TGI of over 100 µM.
For `COC(=O)/C=C(\C)CCC1SC1(C)C` (stereo not given), the TGI was over 100 µM.
With `Cc1ccc(S(=O)(=O)N/N=C2/CCC3(O)CC2(C)CCC2[C@H]3CC2(C)C)cc1` (stereo not given in full) the TGI was over 100 µM.
With `CCSC1=N/C(=C\c2ccco2)C(=O)N1` the TGI was over 100 µM.
In the case of `COc1ccc(-c2nc(Nc3ccccc3)sc2Cc2sc(Nc3ccccc3)nc2-c2ccc(OC)cc2)cc1`, the TGI was over 100 µM.
Compound `COc1cc(C2c3cc4c(cc3C(=O)C3CCC(=O)N32)OCO4)cc(OC)c1O` (stereo not given) has a TGI of over 50 µM.

These compounds were tested on MDA-N (assay: NCI anticancer screen, dose series, 48 h).
Compound `O=C(NCCNCCNC(=O)c1cc(-c2ccccc2)nc2ccccc12)c1cc(-c2ccccc2)nc2ccccc12` has a TGI of 3.42 µM.
In the case of `COc1cc([C@@H]2c3cc4c(cc3[C@@H](Nc3ccc(Cl)cc3C(=O)c3ccccc3)[C@H]3COC(=O)[C@H]23)OCO4)cc(OC)c1OC`, the TGI was over 93.6 µM.
`Cc1cc(O)c(/C=N/C(=S)Nc2ccc(S(N)(=O)=O)cc2)c(=O)o1` showed a TGI of over 100 µM.
With `Cn1nnc2c3c(N(CCO)CCO)ccnc3ccc21` the TGI was over 100 µM.
With `Cc1ccc(S(=O)(=O)N2CCSCCSCCSCCN(S(=O)(=O)c3ccc(C)cc3)CC2)cc1` the TGI was over 100 µM.
For `CC(=O)[C@H]1[C@H](O)C[C@@]2(C)[C@@H]3CCc4cc(O)c(OC5OC(CO)C(O)C(O)C5O)cc4C3(C)C(=O)C[C@]12C` (stereo not given in full), the TGI was over 100 µM.
Compound `CCCc1nc2c(n1CC)C(=O)c1ccccc1C2=O` has a TGI of 49.4 µM.
For `CO/C(=N\N=C\c1ccc(Cl)c(Cl)c1)c1ccncc1`, the TGI was over 10 µM.
`CC(=O)/C(=C\I)c1ccccc1` showed a TGI of 3.28 µM.
`CCOC(=O)c1c[nH]c(C(=O)C=[N+]=[N-])c1C1CCN(CC)C1=S` (stereo not given) was tested, and the TGI was over 100 µM.
`COC(=O)C(=O)C(C(=O)C(=O)Nc1ccc(C)cc1C)c1nc2ccc(Cl)cc2[nH]c1=O` (stereo not given) gave a TGI of over 100 µM.
`Cc1ccc(S(=O)(=O)N/N=C2/CCC3(O)CC2(C)CCC2[C@H]3CC2(C)C)cc1` (stereo not given in full) was tested, and the TGI was 92 µM.
